From the supplement of paper PMC10307832

Columns and labels:
Assay in all cases: relative viability (nuclei count vs DMSO), 5 days (fraction); higher = more cells survive
R406 + Phenformin = compound: COc1cc(Nc2ncc(F)c(Nc3ccc4c(n3)NC(=O)C(C)(C)O4)n2)cc(OC)c1OC [R406] + N=C(N)NC(=N)NCCc1ccccc1 [Phenformin] (partner 250 µM)
Method in brief: (§1)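 Lung cancer cell lines were seeded in 1536-well plates and dosed by pin tool the next day, with either a single drug or a fixed anchor-drug dose combined with five library-drug doses (not always all listed) spaced in √10 steps. Five days later, one step fixed the cells and stained their nuclei (final 0.05% Triton X-100, 1% formaldehyde, 1 ug/ml Hoechst), and nuclei were counted on 4× images. Relative viability is the nuclei count in treated wells divided by the count in vehicle wells, and each value is the median of duplicate plates.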

R406 + Trametinib = compound: COc1cc(Nc2ncc(F)c(Nc3ccc4c(n3)NC(=O)C(C)(C)O4)n2)cc(OC)c1OC [R406] + CC(=O)Nc1cccc(-n2c(=O)n(C3CC3)c(=O)c3c(Nc4ccc(I)cc4F)n(C)c(=O)c(C)c32)c1 [Trametinib] (partner 0.02 µM)
Method in brief: as §1

R406 + Decitabine = compound: COc1cc(Nc2ncc(F)c(Nc3ccc4c(n3)NC(=O)C(C)(C)O4)n2)cc(OC)c1OC [R406] + Nc1ncn([C@H]2C[C@H](O)[C@@H](CO)O2)c(=O)n1 [Decitabine] (partner 2 µM)
Method in brief: as §1

Daporinad + Navitoclax = compound: O=C(/C=C/c1cccnc1)NCCCCC1CCN(C(=O)c2ccccc2)CC1 [Daporinad] + CC1(C)CCC(c2ccc(Cl)cc2)=C(CN2CCN(c3ccc(C(=O)NS(=O)(=O)c4ccc(N[C@H](CCN5CCOCC5)CSc5ccccc5)c(S(=O)(=O)C(F)(F)F)c4)cc3)CC2)C1 [Navitoclax] (partner 0.5 µM)
Method in brief: as §1

Cell Line	relative viability (R406 + Phenformin; first compound 0.08 µM)	relative viability (R406 + Phenformin; first compound 0.253 µM)	relative viability (R406 + Phenformin; first compound 0.8 µM)	relative viability (R406 + Phenformin; first compound 2.53 µM)	relative viability (R406 + Phenformin; first compound 8 µM)	relative viability (R406 + Trametinib; first compound 0.08 µM)	relative viability (R406 + Trametinib; first compound 0.253 µM)	relative viability (R406 + Trametinib; first compound 0.8 µM)	relative viability (R406 + Trametinib; first compound 2.53 µM)	relative viability (R406 + Trametinib; first compound 8 µM)	relative viability (R406 + Decitabine; first compound 0.08 µM)	relative viability (R406 + Decitabine; first compound 0.253 µM)	relative viability (R406 + Decitabine; first compound 0.8 µM)	relative viability (R406 + Decitabine; first compound 2.53 µM)	relative viability (R406 + Decitabine; first compound 8 µM)	relative viability (Daporinad + Navitoclax; first compound 0.0005 µM)	relative viability (Daporinad + Navitoclax; first compound 0.001581 µM)	relative viability (Daporinad + Navitoclax; first compound 0.005 µM)	relative viability (Daporinad + Navitoclax; first compound 0.01581 µM)
NCI-H1793	0.312	0.477	0.546	0.192	0.156	0.448	0.537	0.411	0.422	0.16	0.528	0.469	0.446	0.409	0.177	0.453	0.499	0.38	0.569
NCI-H2347	0.493	0.417	0.43	0.26	0.235	0.304	0.285	0.282	0.244	0.255	0.666	0.645	0.594	0.631	0.562	0.926	0.887	0.885	0.779
NCI-H1993	0.503	0.474	0.525	0.505	0.569	0.442	0.542	0.518	0.679	0.573	0.623	0.634	0.599	0.537	0.542	0.877	0.753	0.982	1.16
NCI-H322M	0.709	0.721	0.853	0.582	0.275	0.515	0.532	0.452	0.475	0.421	0.665	0.669	0.704	0.594	0.557	1.25	1.43	1.25	0.995
PC-14	0.602	0.951	0.746	0.332	0.12	0.777	0.898	0.857	0.628	0.11	0.301	0.237	0.25	0.0789	0.0868	1.05	1	0.875	0.721
HARA	0.386	0.508	0.548	0.377	0.324	0.745	0.629	0.878	0.794	0.13	0.414	0.597	0.586	0.584	0.178	1.15	1.08	1.14	0.275
NCI-H2087	0.487	0.569	0.556		0.406	0.227	0.218	0.197	0.194	0.156	0.24	0.264	0.301	0.221	0.152	1.05	0.881	1.03	0.912
NCI-H1437	0.301	0.31	0.251	0.29	0.201	0.547	0.657	0.637	0.487	0.295	0.552	0.623	0.567	0.665	0.472	1.09	1.1	1.04	1.07
NCI-H1792		0.377	0.246	0.0941	0.13	0.428	0.443	0.427	0.178	0.0999	0.558	0.727	0.59	0.515	0.352	0.702	0.722	0.534	0.621
ChaGo-K-1	0.491	0.508	0.657	0.42	0.403	0.853	0.962	0.982	0.844	0.763	0.491	0.546	0.557	0.504	0.506	1.02	0.58	0.845	0.492
COR-L23	0.416	0.456	0.501	0.379	0.261	0.627	0.669	0.682	0.217	0.338	0.397	0.447	0.512	0.339	0.326	1.01	0.966	0.916	0.186
COR-L 105	0.495	0.569	0.602	0.366	0.224	0.444	0.497	0.432	0.459	0.395	0.593	0.561	0.758	0.563	0.475	0.777	0.883	0.722	0.618
LK-2	0.385	0.807	0.428	0.181	0.105	0.675	1	0.718	0.706	0.447	0.227	0.469	0.379	0.23	0.21	0.865	1.04	0.583	0.393
201T	0.416	0.483	0.431	0.367	0.351	0.696	0.72	0.726	0.674	0.679	0.838	0.847	0.861	0.839	0.586	1.23	1.19	1.21	1.2
HCC-44	0.15	0.22	0.196	0.18	0.127	1.04	1.1	1.12	0.984	0.966	0.924	1.04	0.856	1	1.05	1.02	0.99	1.02	0.897
NCI-H647	0.423	0.561	0.78	0.432	0.12	0.534	0.359	0.6	0.239	0.0884	0.39	0.462	0.406	0.486	0.207	1.03	1.27	1.25	1.14
H3255	0.366		0.352	0.369	0.311	0.549	0.693	0.563	0.577	0.487	0.656	0.589	0.714	0.571	0.458	0.483	0.429	0.584	0.695

Cell Line	relative viability (R406 + Phenformin; first compound 0.08 µM)	relative viability (R406 + Phenformin; first compound 0.253 µM)	relative viability (R406 + Phenformin; first compound 0.8 µM)	relative viability (R406 + Phenformin; first compound 2.53 µM)	relative viability (R406 + Phenformin; first compound 8 µM)	relative viability (R406 + Trametinib; first compound 0.08 µM)	relative viability (R406 + Trametinib; first compound 0.253 µM)	relative viability (R406 + Trametinib; first compound 0.8 µM)	relative viability (R406 + Trametinib; first compound 2.53 µM)	relative viability (R406 + Trametinib; first compound 8 µM)	relative viability (R406 + Decitabine; first compound 0.08 µM)	relative viability (R406 + Decitabine; first compound 0.253 µM)	relative viability (R406 + Decitabine; first compound 0.8 µM)	relative viability (R406 + Decitabine; first compound 2.53 µM)	relative viability (R406 + Decitabine; first compound 8 µM)	relative viability (Daporinad + Navitoclax; first compound 0.0005 µM)	relative viability (Daporinad + Navitoclax; first compound 0.001581 µM)	relative viability (Daporinad + Navitoclax; first compound 0.005 µM)	relative viability (Daporinad + Navitoclax; first compound 0.01581 µM)
NCI-H2023	0.374	0.444	0.464	0.312	0.163	0.499	0.562	0.582	0.286	0.129	0.246	0.254	0.247	0.127	0.195	0.995	1.14	0.958	0.995
NCI-H23	0.693	0.821	0.775		0.355	0.288	0.376	0.444	0.399	0.128	0.258	0.307	0.314	0.308	0.177	0.83	0.637	0.658	0.447
NCI-H596	0.672	0.845	0.967	0.703	0.281	0.814	0.909	0.775	0.72	0.196	0.88	0.994	1.01	0.91	0.372	1.01	1.05	1.3	0.291
NCI-H520	0.625	0.785	0.641	0.28	0.188	0.665	0.792	0.935	0.258	0.124	0.455	0.684	0.53	0.302	0.158	0.945	0.442	0.258	0.197
EKVX	0.23	0.254	0.245	0.208	0.178	0.405	0.383	0.348	0.364	0.264	0.341	0.365	0.316	0.336	0.354	0.808	0.914	0.97	1.11
NCI-H1944	0.207	0.227	0.218	0.15	0.16	0.401	0.453	0.364	0.385	0.319	0.393	0.41	0.358	0.383	0.399	1.08	1.05	0.981	1.09
EPLC-272H	0.278	0.371	0.333	0.25	0.207	0.324	0.333	0.305	0.166	0.21	0.354	0.391	0.436	0.26	0.21	1.22	1.47	1.28	1.38
NCI-H1395	0.432	0.463	0.482	0.394	0.345	0.979	1.02	0.998	0.687	0.568	0.685	0.782	0.72	0.572	0.628	1.03	1.14	1.13	1.26
NCI-H2126	0.527	0.554	0.516	0.529	0.359	0.609	0.535	0.511	0.519	0.522	0.618	0.629	0.638	0.545	0.582	0.914	0.751	0.845	0.874
LXF-289	0.517	0.543	0.533	0.38	0.4	0.675	0.694	0.68	0.67	0.672	0.386	0.372	0.406	0.405	0.396	0.868	0.951	0.971	1.02
NCI-H2009	0.47	0.501	0.487	0.333	0.185	0.275	0.275	0.323	0.213	0.136	0.371	0.42	0.383	0.353	0.294	1.17	1.2	1.22	0.812
SK-MES-1	0.645	0.685	0.706	0.583	0.349	0.561	0.531	0.553	0.304	0.218	0.351	0.384	0.455	0.229	0.181	1.27	1.16	1.31	0.852
NCI-H2405	0.399	0.427	0.402	0.284	0.195	0.584	0.699	0.615	0.447	0.299	0.703	0.814	0.756	0.615	0.369	0.948	0.962	0.684	0.321
NCI-H1755	0.602	0.651	0.621	0.374	0.429	0.679	0.788	0.714	0.704	0.465	0.652	0.707	0.676	0.733	0.679	0.987	0.974	1.04	0.989
HCC-78	0.544	0.751	0.842	0.611	0.392	0.757	0.687	0.749	0.504	0.424	0.566	0.785	0.702	0.749	0.61	0.644	0.935	0.842	1.05
LOU-NH91	0.711	0.72	0.713	0.416	0.391	0.804	0.8	0.759	0.621	0.549	0.797	0.792	0.779	0.644	0.558	0.678	0.851	0.928	1.24
